Experimental data published in patent US7858652B2, “Substituted 4-imidazoles” (Hoffmann-La Roche Inc., priority 2006, dated 2010).

Molecular target: T1, TAAR1 (Mus musculus, UniProt Q923Y8)
T1 construct: expressed in transfected cells; host or cells: HEK293 cells (ATCC # CRL-1573), stably transfected with pIRESneo2 expression plasmid; membrane preparation
Assay: Radioligand binding to TAAR1, membranes of stably transfected HEK293 cells, [3H]-rac-2-(1,2,3,4-tetrahydro-1-naphthyl)-2-imidazoline
Conditions: mouse TAAR1; 4° C., 30 minutes incubation; radioligand at 60 nM
Description: The Expand High Fidelity PCR System (Roche Diagnostics) was used with 1.5 mM Mg^2+ and purified PCR products were cloned into pCR2.1-TOPO cloning vector (Invitrogen) following the instructions of the manufacturer. PCR products were subcloned into the pIRESneo2 vector (BD Clontech, Palo Alto, Calif.), and expression vectors were sequence verified before introduction in cell lines.
For the generation of stably transfected cell lines, HEK293 cells were transfected with the pIRESneo2 expression plasmids containing the TAAR coding sequences (described above) with Lipofectamine 2000 (Invitrogen) according to the instructions of the manufacturer, and 24 hours post transfection, the culture medium was supplemented with 1 mg/ml G418 (Sigma, Buchs, Switzerland). After a culture period of about 10 days, clones were isolated, expanded and tested for responsiveness to trace amines (all compounds purchased from Sigma) with the cAMP Biotrak Enzyme immunoassay (EIA) System (Amersham) following the non-acetylation EIA procedure provided by the manufacturer.
Cells at confluence were rinsed with ice-cold phosphate buffered saline without Ca^2+ and Mg^2+ containing 10 mM EDTA and pelleted by centrifugation at 1000 rpm for 5 minutes at 4° C. The pellet was then washed twice with ice-cold phosphate buffered saline and the cell pellet was frozen immediately by immersion in liquid nitrogen and stored until use at −80° C. The cell pellet was then suspended in 20 ml HEPES-NaOH (20 mM), pH 7.4 containing 10 mM EDTA, and homogenized with a Polytron (PT 3000, Kinematica) at 10,000 rpm for 10 seconds. The homogenate was centrifuged at 48,000×g for 30 minutes at 4° C. and the pellet resuspended in 20 ml HEPES-NaOH (20 mM), pH 7.4 containing 0.1 mM EDTA (buffer A), and homogenized with a Polytron at 10,000 rpm for 10 seconds. The homogenate was then centrifuged at 48,000×g for 30 minutes at 4° C. and the pellet resuspended in 20 ml buffer A, and homogenized with a Polytron at 10,000 rpm for 10 seconds. Protein concentration was determined by the method of Pierce (Rockford, Ill.). The homogenate was then centrifuged at 48,000×g for 10 minutes at 4° C., resuspended in HEPES-NaOH (20 mM), pH 7.0 including MgCl2 (10 mM) and CaCl2 ([…]) (buffer B) at 200 μg protein per ml and homogenized with a Polytron at 10,000 rpm for 10 seconds.
Binding assay was performed at 4° C. in a final volume of 1 ml, and with an incubation time of 30 minutes. […] Non-specific binding was defined as the amount of [^3H]-rac-2-(1,2,3,4-tetrahydro-1-naphthyl)-2-imidazoline bound in the presence of the appropriate unlabelled ligand (10 μM). Competing ligands were tested in a wide range of concentrations (10 pM-30 μM). […] Each experiment was performed in duplicate. All incubations were terminated by rapid filtration through UniFilter-96 plates (Packard Instrument Company) and glass filter GF/C) pre-soaked for at least 2 hours in polyethylenimine 0.3%, and using a Filtermate 96 Cell Harvester (Packard Instrument Company). The tubes and filters were then washed 3 times with 1 ml aliquots of cold buffer B. Filters were not dried and soaked in Ultima gold (45 μl/well, Packard Instrument Company) and bound radioactivity was counted by a TopCount Microplate Scintillation Counter (Packard Instrument Company).

T1 sequence (Q923Y8 whole entry): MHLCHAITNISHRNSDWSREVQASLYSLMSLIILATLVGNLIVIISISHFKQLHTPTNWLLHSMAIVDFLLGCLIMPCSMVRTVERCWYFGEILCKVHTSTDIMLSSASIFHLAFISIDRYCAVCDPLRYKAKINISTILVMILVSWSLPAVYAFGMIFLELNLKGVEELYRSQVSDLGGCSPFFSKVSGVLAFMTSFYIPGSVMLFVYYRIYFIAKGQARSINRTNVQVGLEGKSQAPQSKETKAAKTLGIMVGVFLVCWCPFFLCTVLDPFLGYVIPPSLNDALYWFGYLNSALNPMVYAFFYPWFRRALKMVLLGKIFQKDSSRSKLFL

Row | SMILES | Ki [µM]
1 | COc1ccc2c(c1)CCCCN2Cc1cnc[nH]1 [Example 43, 1-(3H-Imidazol-4-ylmethyl)-7-methoxy-2,3,4,5-tetrahydro-1H-benzo[b]azepine] | 0.0538
2 | CC1Cc2ccccc2N1Cc1cnc[nH]1 (racemic) [Example 1, (R,S)-1-(1H-Imidazol-4-ylmethyl)-2-methyl-2,3-dihydro-1H-indole] | 0.0688
3 | COc1ccc2c(c1)N(Cc1cnc[nH]1)CC2 [Example 27, 1-(1H-Imidazol-4-ylmethyl)-6-methoxy-2,3-dihydro-1H-indole] | 0.0389
4 | c1ccc2c(c1)OCCN2Cc1cnc[nH]1 [Example 18, 4-(1H-Imidazol-4-ylmethyl)-3,4-dihydro-2H-benzo[1,4]oxazine] | 0.0578
5 | COc1ccc2c(c1)CCN2Cc1cnc[nH]1 [Example 26, 1-(1H-Imidazol-4-ylmethyl)-5-methoxy-2,3-dihydro-1H-indole] | 0.0834
6 | Fc1ccc2c(c1)CCN2Cc1cnc[nH]1 [Example 36, 5-Fluoro-1-(1H-imidazol-4-ylmethyl)-2,3-dihydro-1H-indole] | 0.0277
7 | CC1Cc2cc(Cl)ccc2N1Cc1cnc[nH]1 (racemic) [Example 16, (R,S)-5-Chloro-1-(1H-imidazol-4-ylmethyl)-2-methyl-2,3-dihydro-1H-indole] | 0.0345
8 | CC1CCc2ccccc2N1Cc1cnc[nH]1 (single isomer, unassigned; (-)) [Example 47, (−)-1-(1H-Imidazol-4-ylmethyl)-2-methyl-1,2,3,4-tetrahydro-quinoline] | 0.0872
9 | CC1COc2ccccc2N1Cc1cnc[nH]1 (racemic) [Example 45, (R,S)-4-(1H-Imidazol-4-ylmethyl)-3-methyl-3,4-dihydro-2H-benzo[1,4]oxazine] | 0.017
10 | COc1cccc2c1N(Cc1cnc[nH]1)CC2 [Example 28, 1-(1H-Imidazol-4-ylmethyl)-7-methoxy-2,3-dihydro-1H-indole] | 0.0409
11 | c1ccc2c(c1)CCCN2Cc1cnc[nH]1 [Example 7, 1-(3H-Imidazol-4-ylmethyl)-1,2,3,4-tetrahydro-quinoline] | 0.0264
12 | CC1COc2ccccc2N1Cc1cnc[nH]1 (single isomer, unassigned; (-)) [Example 49, (−)-4-(1H-Imidazol-4-ylmethyl)-3-methyl-3,4-dihydro-2H-benzo[1,4]oxazine] | 0.0573
13 | c1ccc2c(c1)CCCCN2Cc1cnc[nH]1 [Example 44, 1-(3H-Imidazol-4-ylmethyl)-2,3,4,5-tetrahydro-1H-benzo[b]azepine] | 0.0151
14 | Clc1cccc2c1N(Cc1cnc[nH]1)CC2 [Example 32, 7-Chloro-1-(H-imidazol-4-ylmethyl)-2,3-dihydro-1H-indole] | 0.0403
15 | c1ccc(COc2ccc3c(c2)N(Cc2cnc[nH]2)CCC3)cc1 [Example 57, 7-Benzyloxy-1-(1H-imidazol-4-ylmethyl)-1,2,3,4-tetrahydro-quinoline] | 0.0702
16 | CC1CCc2cc(F)ccc2N1Cc1cnc[nH]1 (racemic) [Example 6, (R,S)-6-Fluoro-1-(1H-imidazol-4-ylmethyl)-2-methyl-1,2,3,4-tetrahydro-quinoline] | 0.0598
17 | CC1CCc2ccccc2N1Cc1cnc[nH]1 (racemic) [Example 3, (R,S)-1-(1H-Imidazol-4-ylmethyl)-2-methyl-1,2,3,4-tetrahydro-quinoline] | 0.0258
18 | Cc1cccc2c1N(Cc1cnc[nH]1)CC2 [Example 40, 1-(1H-Imidazol-4-ylmethyl)-7-methyl-2,3-dihydro-1H-indole] | 0.0405
19 | COc1cccc2c1CCN2Cc1c[nH]cn1 [Example 31, 1-(1H-Imidazol-4-ylmethyl)-4-methoxy-2,3-dihydro-1H-indole] | 0.0243
20 | CC1CN(Cc2cnc[nH]2)c2ccccc21 (racemic) [Example 35, (R,S)-1-(1H-Imidazol-4-ylmethyl)-3-methyl-2,3-dihydro-1H-indole] | 0.0323
21 | CC1Cc2cc(F)ccc2N1Cc1cnc[nH]1 (racemic) [Example 39, (R,S)-5-Fluoro-1-(1H-imidazol-4-ylmethyl)-2-methyl-2,3-dihydro-1H-indole] | 0.0493

The remaining lines, values ahead:

Row | Ki [µM] | SMILES
22 | 0.0144 | Fc1cc2c(cc1F)N(Cc1cnc[nH]1)CC2 [Example 38, 5,6-Difluoro-1-(1H-imidazol-4-ylmethyl)-2,3-dihydro-1H-indole]
23 | 0.0133 | Cc1ccc2c(c1)N(Cc1cnc[nH]1)CC2 [Example 34, 1-(1H-Imidazol-4-ylmethyl)-6-methyl-2,3-dihydro-1H-indole]
24 | 0.0115 | Cc1ccc2c(c1)CCN2Cc1cnc[nH]1 [Example 29, 1-(1H-Imidazol-4-ylmethyl)-5-methyl-2,3-dihydro-1H-indole]
25 | 0.0106 | Fc1ccc2c(c1)N(Cc1cnc[nH]1)CC2 [Example 37, 6-Fluoro-1-(1H-imidazol-4-ylmethyl)-2,3-dihydro-1H-indole]
26 | 0.0104 | Cc1cccc2c1CCN2Cc1cnc[nH]1 [Example 41, 1-(1H-Imidazol-4-ylmethyl)-4-methyl-2,3-dihydro-1H-indole]
27 | 0.0102 | Clc1ccc2c(c1)CCN2Cc1cnc[nH]1 [Example 14, 5-Chloro-1-(1H-imidazol-4-ylmethyl)-2,3-dihydro-1H-indole]
28 | 0.0091 | Brc1ccc2c(c1)CCN2Cc1cnc[nH]1 [Example 4, 5-Bromo-1-(1H-imidazol-4-ylmethyl)-2,3-dihydro-1H-indole]
29 | 0.0046 | c1ccc(COc2cccc3c2CCCN3Cc2cnc[nH]2)cc1 [Example 55, 5-Benzyloxy-1-(1H-imidazol-4-ylmethyl)-1,2,3,4-tetrahydro-quinoline]
30 | 0.0042 | CCc1cccc2c1N(Cc1cnc[nH]1)CC2 [Example 23, 7-Ethyl-1-(1H-imidazol-4-ylmethyl)-2,3-dihydro-1H-indole]
31 | 0.003 | Brc1ccc2c(c1)CCCN2Cc1cnc[nH]1 [Example 33, 6-Bromo-1-(H-imidazol-4-ylmethyl)-1,2,3,4-tetrahydro-quinoline]
32 | 0.0027 | c1ccc(Oc2cccc3c2CCCN3Cc2c[nH]cn2)cc1 [Example 61, 1-(1H-Imidazol-4-ylmethyl)-5-phenoxy-1,2,3,4-tetrahydro-quinoline]
33 | 0.0016 | Clc1cccc2c1CCN2Cc1cnc[nH]1 [Example 25, 4-Chloro-1-(1H-imidazol-4-ylmethyl)-2,3-dihydro-1H-indole]

Same assay, conditions: radioligand of the TAAR1 binding assay; species not stated; read-out: calculated Kd value of the radioligand

Row | SMILES | Kd [nM]
34 | c1ccc2c(c1)CCCC2C1=NCCN1 (racemic) [[^3H]-rac-2-(1,2,3,4-tetrahydro-1-naphthyl)-2-imidazoline, reference compound] | 60
